≈ marks a conversion by molar mass, not a printed value. Each block holds one molecule with its values, some of them ahead of it.
Tests used:
[1] = Antiproliferative activity against human GTL16 cells after 72 hrs by tetrazolium-based colorimetric assay; settings: GTL 16, 72 h
[2] = Aqueous solubility at pH 6.5; type: physicochemical
[3] = Cmax in mouse at 50 mg/kg, po; type: ADME, organism-based; set-up: dose 50 mg/kg, route oral; settings: in vivo
[4] = target: Vascular endothelial growth factor receptor 2 (Homo sapiens, UniProt P35968); assay: Inhibition of VEGFR2
[5] = target: High affinity nerve growth factor receptor (Homo sapiens, UniProt P04629); assay: Inhibition of TrkA
[6] = Inhibition of PKC
[7] = Bioavailability in mouse at 20 mg/kg, ip; type: ADME, organism-based; settings: in vivo
[8] = target: Cyclin-dependent kinase 2 (Homo sapiens, UniProt P24941); assay: Inhibition of CDK2
[9] = Inhibition of PKA
[10] = target: Tyrosine-protein kinase Lck (Homo sapiens, UniProt P06239); assay: Inhibition of lck
Chain of Tyrosine-protein kinase Lck (P06239 whole entry): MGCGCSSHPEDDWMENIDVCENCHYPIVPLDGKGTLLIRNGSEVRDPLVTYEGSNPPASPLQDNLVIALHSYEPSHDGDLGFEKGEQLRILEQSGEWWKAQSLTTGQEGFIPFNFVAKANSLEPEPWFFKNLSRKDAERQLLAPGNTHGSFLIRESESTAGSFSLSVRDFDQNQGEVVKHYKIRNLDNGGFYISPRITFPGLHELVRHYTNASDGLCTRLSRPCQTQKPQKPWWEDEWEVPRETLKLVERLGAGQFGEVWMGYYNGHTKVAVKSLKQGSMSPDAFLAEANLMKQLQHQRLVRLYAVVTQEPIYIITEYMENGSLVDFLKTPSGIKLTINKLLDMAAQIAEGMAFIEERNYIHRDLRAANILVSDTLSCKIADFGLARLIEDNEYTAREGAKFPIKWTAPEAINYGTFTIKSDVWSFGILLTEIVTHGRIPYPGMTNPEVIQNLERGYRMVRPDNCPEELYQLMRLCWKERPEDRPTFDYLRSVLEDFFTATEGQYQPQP

[11] = target: Insulin-like growth factor 1 receptor (Homo sapiens, UniProt P08069); assay: Inhibition of IGF1R
[12] = system: Liver; assay: Metabolic stability in mouse liver microsomes; type: ADME, Microsome
[13] = target: MAP kinase-activated protein kinase 2 (Homo sapiens, UniProt P49137); assay: Inhibition of MK2
Chain of MAP kinase-activated protein kinase 2 (P49137 whole entry): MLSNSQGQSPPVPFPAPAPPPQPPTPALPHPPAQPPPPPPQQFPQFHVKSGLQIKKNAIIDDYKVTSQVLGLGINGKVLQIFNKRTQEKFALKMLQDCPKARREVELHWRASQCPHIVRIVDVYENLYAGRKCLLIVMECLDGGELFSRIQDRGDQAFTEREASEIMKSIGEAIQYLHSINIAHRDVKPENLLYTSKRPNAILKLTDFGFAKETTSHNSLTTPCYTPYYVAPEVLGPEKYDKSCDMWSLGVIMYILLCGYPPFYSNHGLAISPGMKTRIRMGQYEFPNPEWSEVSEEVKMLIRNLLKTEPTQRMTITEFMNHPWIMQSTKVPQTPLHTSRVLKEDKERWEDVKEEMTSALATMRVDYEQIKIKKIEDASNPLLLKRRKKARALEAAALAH

[14] = Clearance in mouse at 20 mg/kg, iv; type: ADME, organism-based; set-up: dose 20 mg/kg, route intravenous; settings: in vivo
[15] = Metabolic stability per 10^6 cells in mouse hepatocytes; type: ADME, cell-based, Hepatocyte
[16] = target: Receptor tyrosine-protein kinase erbB-2 (Homo sapiens, UniProt P04626); assay: Inhibition of HER2
Chain of Receptor tyrosine-protein kinase erbB-2 (P04626 whole entry): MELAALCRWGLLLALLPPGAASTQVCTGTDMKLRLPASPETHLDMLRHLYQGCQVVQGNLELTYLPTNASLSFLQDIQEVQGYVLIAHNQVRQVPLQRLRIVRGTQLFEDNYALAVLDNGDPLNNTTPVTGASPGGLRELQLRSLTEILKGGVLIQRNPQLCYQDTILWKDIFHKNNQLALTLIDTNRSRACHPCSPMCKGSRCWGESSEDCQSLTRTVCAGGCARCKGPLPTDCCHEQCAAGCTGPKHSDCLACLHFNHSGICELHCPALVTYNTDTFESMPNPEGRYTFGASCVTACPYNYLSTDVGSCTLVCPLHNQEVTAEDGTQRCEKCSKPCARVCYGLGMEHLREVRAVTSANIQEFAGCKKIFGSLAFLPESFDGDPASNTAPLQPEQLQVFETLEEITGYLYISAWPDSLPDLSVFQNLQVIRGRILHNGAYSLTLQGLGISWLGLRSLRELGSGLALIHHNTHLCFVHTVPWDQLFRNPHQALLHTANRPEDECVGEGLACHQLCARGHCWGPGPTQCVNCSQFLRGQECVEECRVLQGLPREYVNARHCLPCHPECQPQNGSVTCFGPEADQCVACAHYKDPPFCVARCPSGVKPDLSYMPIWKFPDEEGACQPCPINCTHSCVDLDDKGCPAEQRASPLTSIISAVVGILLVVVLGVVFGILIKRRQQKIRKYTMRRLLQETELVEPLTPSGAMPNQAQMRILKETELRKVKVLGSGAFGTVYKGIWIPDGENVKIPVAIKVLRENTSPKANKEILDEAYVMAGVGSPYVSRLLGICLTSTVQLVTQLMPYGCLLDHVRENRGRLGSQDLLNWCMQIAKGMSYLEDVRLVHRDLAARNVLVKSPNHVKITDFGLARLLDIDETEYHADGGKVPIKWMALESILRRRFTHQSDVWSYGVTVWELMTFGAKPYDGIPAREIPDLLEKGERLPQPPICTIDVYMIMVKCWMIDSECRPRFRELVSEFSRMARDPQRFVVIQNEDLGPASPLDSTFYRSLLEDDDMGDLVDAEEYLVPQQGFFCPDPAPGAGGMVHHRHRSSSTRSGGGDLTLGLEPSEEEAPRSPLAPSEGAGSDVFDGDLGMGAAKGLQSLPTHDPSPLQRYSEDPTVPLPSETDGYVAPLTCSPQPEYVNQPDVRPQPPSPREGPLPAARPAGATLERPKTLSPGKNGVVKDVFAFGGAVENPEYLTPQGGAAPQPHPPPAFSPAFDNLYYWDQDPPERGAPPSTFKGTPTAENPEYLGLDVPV

[17] = Permeability across human Caco-2 cells; type: ADME, cell-based; settings: read-out: permeability
[18] = target: Insulin receptor (Homo sapiens, UniProt P06213); assay: Inhibition of InsR
Chain of Insulin receptor (P06213 28-758 limits assumed): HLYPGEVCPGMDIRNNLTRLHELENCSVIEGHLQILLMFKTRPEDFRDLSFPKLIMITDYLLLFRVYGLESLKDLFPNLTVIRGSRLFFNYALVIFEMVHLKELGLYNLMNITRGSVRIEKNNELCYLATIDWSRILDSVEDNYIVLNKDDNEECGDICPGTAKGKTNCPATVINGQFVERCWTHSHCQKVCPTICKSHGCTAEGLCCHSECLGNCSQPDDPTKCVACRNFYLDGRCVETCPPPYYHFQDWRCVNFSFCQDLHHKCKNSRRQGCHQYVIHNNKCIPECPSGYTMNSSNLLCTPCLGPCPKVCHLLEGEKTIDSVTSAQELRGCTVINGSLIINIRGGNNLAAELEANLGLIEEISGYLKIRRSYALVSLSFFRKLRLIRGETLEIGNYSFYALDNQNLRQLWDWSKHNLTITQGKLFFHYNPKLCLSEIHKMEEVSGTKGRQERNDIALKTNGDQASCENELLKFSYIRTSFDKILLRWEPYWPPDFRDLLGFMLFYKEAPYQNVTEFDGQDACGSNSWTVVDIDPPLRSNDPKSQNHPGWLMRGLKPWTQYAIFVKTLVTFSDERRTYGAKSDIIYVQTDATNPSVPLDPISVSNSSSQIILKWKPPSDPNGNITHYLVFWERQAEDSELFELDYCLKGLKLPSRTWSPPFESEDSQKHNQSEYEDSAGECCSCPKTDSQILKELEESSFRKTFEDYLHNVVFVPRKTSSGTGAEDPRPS
Chain of Insulin receptor (P06213 763-1382 limits assumed): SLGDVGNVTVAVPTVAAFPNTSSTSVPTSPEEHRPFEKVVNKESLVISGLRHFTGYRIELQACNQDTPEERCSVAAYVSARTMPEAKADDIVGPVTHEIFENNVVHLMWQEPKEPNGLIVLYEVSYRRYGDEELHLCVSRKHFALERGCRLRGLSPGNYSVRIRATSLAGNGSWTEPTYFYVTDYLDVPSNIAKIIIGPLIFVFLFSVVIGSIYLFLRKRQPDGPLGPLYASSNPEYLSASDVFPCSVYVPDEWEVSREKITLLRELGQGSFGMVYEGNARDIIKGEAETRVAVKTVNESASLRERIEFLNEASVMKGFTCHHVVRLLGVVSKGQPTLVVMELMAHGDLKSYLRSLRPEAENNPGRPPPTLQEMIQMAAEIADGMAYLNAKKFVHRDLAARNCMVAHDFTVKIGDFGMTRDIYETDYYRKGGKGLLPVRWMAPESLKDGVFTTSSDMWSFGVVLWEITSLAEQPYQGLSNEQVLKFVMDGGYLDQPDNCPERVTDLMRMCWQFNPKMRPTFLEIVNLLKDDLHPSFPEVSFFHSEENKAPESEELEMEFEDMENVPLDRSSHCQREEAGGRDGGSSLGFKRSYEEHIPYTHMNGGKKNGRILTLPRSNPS

[19] = target: Hepatocyte growth factor receptor (Homo sapiens, UniProt P08581); assay: Inhibition of human recombinant c-Met expressed in insect cell-baculovirus expression system
Chain of Hepatocyte growth factor receptor (P08581 whole entry): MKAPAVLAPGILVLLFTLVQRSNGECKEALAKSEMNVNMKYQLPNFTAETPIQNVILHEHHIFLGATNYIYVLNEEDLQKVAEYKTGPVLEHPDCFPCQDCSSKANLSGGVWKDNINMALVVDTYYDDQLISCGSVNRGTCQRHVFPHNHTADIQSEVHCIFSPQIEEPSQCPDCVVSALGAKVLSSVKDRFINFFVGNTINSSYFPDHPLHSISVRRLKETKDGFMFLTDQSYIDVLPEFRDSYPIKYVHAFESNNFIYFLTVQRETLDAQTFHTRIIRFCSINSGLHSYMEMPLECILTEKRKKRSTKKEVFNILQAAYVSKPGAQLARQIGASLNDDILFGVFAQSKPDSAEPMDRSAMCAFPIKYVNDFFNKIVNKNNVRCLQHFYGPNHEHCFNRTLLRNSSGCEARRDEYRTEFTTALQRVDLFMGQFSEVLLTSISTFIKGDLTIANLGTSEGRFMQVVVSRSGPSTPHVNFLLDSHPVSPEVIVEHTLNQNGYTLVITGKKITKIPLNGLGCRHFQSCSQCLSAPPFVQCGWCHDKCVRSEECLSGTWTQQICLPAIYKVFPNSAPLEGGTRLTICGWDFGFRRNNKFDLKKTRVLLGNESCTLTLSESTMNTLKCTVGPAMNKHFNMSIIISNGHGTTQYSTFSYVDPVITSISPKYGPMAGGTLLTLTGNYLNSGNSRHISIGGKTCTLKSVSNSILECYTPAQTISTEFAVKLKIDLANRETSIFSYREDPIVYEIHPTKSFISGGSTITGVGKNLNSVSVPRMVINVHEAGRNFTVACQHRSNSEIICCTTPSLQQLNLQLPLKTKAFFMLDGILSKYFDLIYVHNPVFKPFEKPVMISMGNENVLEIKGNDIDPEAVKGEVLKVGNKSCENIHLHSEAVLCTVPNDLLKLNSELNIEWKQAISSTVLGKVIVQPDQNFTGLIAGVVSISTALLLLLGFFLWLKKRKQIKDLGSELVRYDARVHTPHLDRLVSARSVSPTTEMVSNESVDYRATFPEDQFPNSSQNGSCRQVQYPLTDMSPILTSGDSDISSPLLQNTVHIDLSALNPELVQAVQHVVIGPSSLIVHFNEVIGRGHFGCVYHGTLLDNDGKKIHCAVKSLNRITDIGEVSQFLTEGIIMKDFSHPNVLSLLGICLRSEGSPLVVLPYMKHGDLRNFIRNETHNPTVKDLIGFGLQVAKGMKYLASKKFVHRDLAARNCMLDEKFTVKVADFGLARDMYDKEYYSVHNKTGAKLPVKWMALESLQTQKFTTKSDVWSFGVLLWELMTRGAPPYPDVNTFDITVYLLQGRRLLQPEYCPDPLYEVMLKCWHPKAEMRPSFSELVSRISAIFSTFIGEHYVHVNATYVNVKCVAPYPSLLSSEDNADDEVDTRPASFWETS

SMILES: Cc1c(OCCN2CCN(C)CC2)cn2ncnc(Oc3ccc(NC(=O)c4cc(Cl)ccc4F)cc3F)c12
- IC50 [1]: 270 nM

- solubility [2]: 290 µg/mL (≈ 556 µM)
SMILES: O=C(Cc1ccc(F)cc1)NC(=O)Nc1ccc(Oc2ncnn3ccc(CN4CCNCC4)c23)c(F)c1

- Cmax [3]: 780 nM
- IC50 [4]: > 5000 nM
- IC50 [5]: 200 nM
- IC50 [6]: > 5000 nM
- bioavailability [7]: 81%
- IC50 [8]: > 5000 nM
- IC50 [9]: > 5000 nM
- IC50 [10]: > 5000 nM
- IC50 [11]: > 5000 nM
- Stability [12]: 0 nmol/min/mg
- IC50 [13]: > 5000 nM
- clearance [14]: 25 mL/min/kg
- Stability [15]: 2 pmol/min
- IC50 [16]: > 5000 nM
- Papp [17]: < 1.5 ×10⁻⁶ cm/s
- IC50 [18]: > 5000 nM
SMILES: NC1CCN(Cc2ccn3ncnc(Oc4ccc(NC(=O)NC(=O)Cc5ccc(F)cc5)cc4F)c23)CC1

SMILES: NC1CCC(=Cc2ccn3ncnc(Oc4ccc(NC(=O)NC(=O)Cc5ccc(F)cc5)cc4F)c23)CC1 (stereo unspecified)
- IC50 [1]: 140 nM

SMILES: Cc1c(OCCCN(C)C)cn2ncnc(Oc3ccc(NC(=O)CC(=O)Nc4ccc(F)cc4)cc3F)c12
- IC50 [1]: 270 nM

- IC50 [19]: > 2000 nM
SMILES: O=C(Cc1ccc(F)cc1)NC(=O)Nc1ccc(Oc2ncnn3ccc(Cl)c23)c(F)c1

SMILES: Cc1c(OCCN2CCN(C)CC2)cn2ncnc(Oc3ccc(NC(=O)c4ccccc4F)cc3F)c12
- IC50 [1]: 840 nM

SMILES: Cc1c(OCCN2CCN(C)CC2)cn2ncnc(Oc3ccc(NC(=O)c4cc(F)ccc4F)cc3F)c12
- IC50 [1]: > 1000 nM

SMILES: Cc1c(OCCN2CCN(C)CC2)cn2ncnc(Oc3ccc(NC(=O)c4c(F)cccc4F)cc3F)c12
- IC50 [1]: > 1000 nM

SMILES: Cc1c(OCCCN(C)C)cn2ncnc(Oc3ccc(NC(=O)c4c(F)cccc4F)cc3F)c12
- IC50 [1]: 170 nM

SMILES: Cc1c(OCCCN(C)C)cn2ncnc(Oc3ccc(NC(=O)NC(=O)Cc4ccc(F)cc4)cc3F)c12
- IC50 [1]: 68 nM

From ChEMBL document CHEMBL1141528, “Identification of pyrrolo[2,1-f][1,2,4]triazine-based inhibitors of Met kinase” (Bioorg Med Chem Lett, 2008)
